# Results published in patent publication US20230357261A1, “ARYL HYDROCARBON RECEPTOR LIGANDS AND THEIR ANALOGUES FOR THE PREVENTION AND TREATMENT OF INFLAMMATORY DISORDERS” (The Johns Hopkins University, priority 2020, published 2023).
# “Also recorded” adds a separate entry of the source.
# Columns and labels:
# mouse NEC model = assay: Experimental NEC in newborn mice (Example 3); assay type: in vivo; settings: 20 mg/kg body weight/day for 4 days; for severity of NEC: 20 mg/kg/day
# Description: (§1) Experimental NEC was induced in 7-day old mice as we have previously described, Good et al., 2015; Sodhi et al., 2018; Egan et al., 2016, by gavage feeding newborn mice with formula containing Similac Advance infant formula (Abbott Nutrition): Esbilac (PetAg) canine milk replacer, 2:1 ratio, which was supplemented with enteric bacteria made from a stock created from a specimen obtained from an infant with surgical NEC five times per day.
# (§2) Additionally, the mice were subjected to hypoxia (5% 02-95% N2) for 10 min in a hypoxia chamber (Billups-Rothenberg) twice daily for 4 days. The compound #169, compound #243, compound #247 or compound #263 administered by oral gavage during the induction of NEC at the dose of 20 mg/kg body weight/day.
# (§3) Age-matched breast milk-fed mouse pups were used as healthy controls. Evaluation of ileal histology by H&E staining and expression of pro-inflammatory cytokines by qRT-PCR at a fixed point in the terminal ileum 2-cm proximal to the cecum, were used to determine the disease severity.
# (§4) Total RNA was isolated using the RNeasy mini kit (Qiagen) and complementary DNA was synthesized from 0.5 μg RNA using QuantiTect Reverse Transcription kit (Qiagen) following the manufacturer's protocols. The mRNA quantification was performed on the Bio-Rad CFX96 Real-Time System (Bio-Rad) using iTaq™ universal SYBR® Green supermix (Bio-Rad) and the primers listed in Table 2. The relative mRNA expression levels were normalized against the expression of the housekeeping gene ribosomal protein lateral stalk subunit P0 (Rplp0).
# TLR4 = TLR4 signaling in mouse ileal enteroids (LPS-induced Tnf-a qRT-PCR); assay type: cell-based; settings: wildtype mouse enteroids; tested compound 40 uM overnight, then LPS 50 μg/mL 6 hours
# Experimental: (§5) Primary intestinal crypt cultures (enteroids) were generated from the ileum of neonatal (p7-p11) wild type and Ahr′ mice at as described, Neal et al., 2012, and maintained in Matrigel (Corning). The enteroids were digested and passed using TrypLE Express (Gibco) weekly, and used between passage 3 and 10 for all experiments. The enteroids were pre-treated with I3C ([…], 12 h), A18 (20 μM, 12 h) or human breast milk (100 μL/mL, Innovative Research, prepared by 5-minute-cenrifugation at 12,000 g and then filtration of supernatant through a 0.22-μm filter) and then treated with LPS (50 μg/mL) for 4 hours for further analysis.
# (§6) Primary intestinal crypt cultures (enteroids) were generated from the ileum of neonatal (p7-p11) mice at as described, Neal et al., 2012, and maintained in Matrigel (Corning). The enteroids were digested and passed using TrypLE Express (Gibco) weekly, and used between passage 3 and 10 for all experiments. The enteroids were pre-treated with tested compound (40 uM, overnight) and then treated with LPS (50 μg/mL) for 6 hours for further analysis.
# as §4
# AHR [1] = assay: AHR activation in mouse ileal enteroids (Cyp1a1 qRT-PCR); assay type: cell-based; settings: wildtype mouse enteroids, tested compound 40 uM, overnight
# Experimental: as §5, §6, §4
# AHR [2] = assay: AHR activation (Cyp1a1) in ileum of mice in the NEC model (Example 3); assay type: in vivo; settings: mouse NEC model; 20 mg/kg/day by oral gavage for 4 days
# Description: as §1, §2, §3, §4
smiles,measurement,setting,value
c1ccc2[nH]c(CSc3ncnc4ccccc34)nc2c1,melting point,,198 to 200 °C (dec.)
"Cc1ccc2nc(SCc3nccc(OCC(F)(F)F)c3C)[nH]c2c1 [compound 18, 5-methyl-2-(((3-methyl-4-(2,2,2-trifluoroethoxy)pyridin-2-yl)methyl)thio)-1H-benzo[d]imidazole]",melting point,,153 to 155 °C
"Cc1c(OCC(F)(F)F)ccnc1CSc1nc2ccc(C#N)cc2[nH]1 [compound 19, 5-cyano-2-(((3-methyl-4-(2,2,2-trifluoroethoxy)pyridin-2-yl)methyl)thio)-1H-benzo[d]-imidazole]",melting point,,204 to 205 °C
"COc1ccnc(CSc2nc3ccc(F)cc3[nH]2)c1C [compound 20, 5-fluoro-2-(((3-methyl-4-methoxypyridin-2-yl)methyl)thio)-1H-benzo[d]imidazole]",melting point,,153 to 155 °C
"CCOc1ccnc(CSc2nc3ccc(F)cc3[nH]2)c1C [compound 21, 5-fluoro-2-(((3-methyl-4-ethoxypyridin-2-yl)methyl)thio)-1H-benzo[d]imidazole]",melting point,,102 to 104 °C
"Cc1c(Oc2ccccc2)ccnc1CSc1nc2ccc(F)cc2[nH]1 [compound 22, 5-fluoro-2-(((3-methyl-4-phenoxypyridin-2-yl)methyl)thio)-1H-benzo[d]imidazole]",melting point,,134 to 136 °C
"Cc1c(OCc2ccccc2)ccnc1CSc1nc2ccc(F)cc2[nH]1 [compound 23, 5-fluoro-2-(((3-methyl-4-benzyloxypyridin-2-yl)methyl)thio)-1H-benzo[d]-imidazole]",melting point,,175 to 177 °C
"Cc1ccc2nc([S+]([O-])Cc3nccc(OCC(F)(F)F)c3C)[nH]c2c1 (stereo not shown) [compound 24, 5-methyl-2-(((3-methyl-4-(2,2,2-trifluoroethoxy)pyridin-2-yl)methyl)sulfinyl)-1H-benzo[d]-imidazole]",melting point,,> 133 °C (dec.)
"Cc1ccc2nc(S(=O)(=O)Cc3nccc(OCC(F)(F)F)c3C)[nH]c2c1 [compound 25, 5-methyl-2-(((3-methyl-4-(2,2,2-trifluoroethoxy)pyridin-2-yl)methyl)sulfonyl)-1H-benzo[d]-imidazole]",melting point,,193 to 194 °C
"COc1ccnc(CS(=O)(=O)c2nc3cc(F)ccc3[nH]2)c1C [compound 26, 5-fluoro-2-(((3-methyl-4-methoxypyridin-2-yl)methyl)sulfonyl)-1H-benzo[d]-imidazole]",melting point,,192 to 193 °C
"CCOc1ccnc(CS(=O)(=O)c2nc3ccc(F)cc3[nH]2)c1C [compound 27, 5-fluoro-2-(((3-methyl-4-ethoxypyridin-2-yl)methyl)sulfonyl)-1H-benzo[d]-imidazole]",melting point,,177 to 178 °C
"Cc1c(Oc2ccccc2)ccnc1CS(=O)(=O)c1nc2ccc(F)cc2[nH]1 [compound 28, 5-fluoro-2-(((3-methyl-4-phenoxypyridin-2-yl)methyl)sulfonyl)-1H-benzo[d]-imidazole]",melting point,,155 to 157 °C
"Cc1c(OCc2ccccc2)ccnc1CS(=O)(=O)c1nc2ccc(F)cc2[nH]1 [compound 29, 5-fluoro-2-(((3-methyl-4-benzyloxypyridin-2-yl)methyl)sulfonyl)-1H-benzo[d]-imidazole]",melting point,,185 to 188 °C
Cc1cc2c(=O)n(Cc3ccco3)c(SCc3nc4ccccc4[nH]3)nc2s1 [compound #169],"histological injury (H&E, ileum)",mouse NEC model,reduced histological injury
same,severity of NEC,mouse NEC model,did not reduce the severity of NEC; also recorded: didn't not reduce the severity of NEC
same,"inhibition of TLR4 signaling in mouse enteroids (Tnf-a induction by LPS, FIG. 15b, FIG. 19)",TLR4,significantly inhibited TLR4 signaling
same,"activation of AHR signaling in mouse enteroids (Cyp1a1, FIG. 15a)",AHR [1],activated AHR
same,"activation of AHR signaling in mouse enteroids (Cyp1a1, FIG. 15a)",AHR [1]; listed as #169,activated AHR signaling
same,expression of Cyp1a1 in vivo (ileum),AHR [2],did not induce the expression of Cyp1a1
c1ccc2[nH]c(CSc3ncnc4ccccc34)nc2c1 [compound #243],"histological injury (H&E, ileum)",mouse NEC model,reduced histological injury
same,severity of NEC,mouse NEC model,did not reduce the severity of NEC; also recorded: didn't not reduce the severity of NEC
same,"inhibition of TLR4 signaling in mouse enteroids (Tnf-a induction by LPS, FIG. 15b, FIG. 19)",TLR4,significantly inhibited TLR4 signaling
same,"activation of AHR signaling in mouse enteroids (Cyp1a1, FIG. 15a)",AHR [1],activated AHR signaling
same,expression of Cyp1a1 in vivo (ileum),AHR [2],did not induce the expression of Cyp1a1
c1ccc2[nH]c(COc3ncnc4ccccc34)nc2c1 [compound #247],"histological injury (H&E, ileum)",mouse NEC model,reduced histological injury
same,severity of NEC,mouse NEC model,did not reduce the severity of NEC; also recorded: didn't not reduce the severity of NEC
same,"inhibition of TLR4 signaling in mouse enteroids (Tnf-a induction by LPS, FIG. 15b, FIG. 19)",TLR4,significantly inhibited TLR4 signaling
same,"activation of AHR signaling in mouse enteroids (Cyp1a1, FIG. 15a)",AHR [1],activated AHR signaling
same,expression of Cyp1a1 in vivo (ileum),AHR [2],significantly induced the expression of Cyp1a1
N#C/C(=C(/N)c1ncnc2ccccc12)c1nc2ccccc2[nH]1 [compound #263],"expression of IL-1b, IL-6, Tnf-a and Lcn2 in the intestinal epithelium",mouse NEC model,reduced expression
same,"histological injury (H&E, ileum)",mouse NEC model,reduced histological injury
same,severity of NEC,mouse NEC model,significantly reduced the severity of experimental NEC; also recorded: protects against experimental NEC
same,"inhibition of TLR4 signaling in mouse enteroids (Tnf-a induction by LPS, FIG. 15b, FIG. 19)",TLR4,significantly inhibited the TLR4 signaling
same,expression of Cyp1a1 in vivo (ileum),AHR [2],significantly induced the expression of Cyp1a1
